Literature values as cited in patent publication US7927486B2, “Polymer modified porous substrate for solid phase extraction” (priority 2005, dated 2011).

CCCCNCC(O)c1ccc(O)cc1.CCCCNCC(O)c1ccc(O)cc1.O=S(=O)(O)O (stereo not shown) [Bamathan hemisulfate]
Log P: 1.29
